System: Ctenocephalides felis
Experiment: Flea (Ctenocephalides felis) Membrane Feed Assay-Adult
Conditions: for lethal dose 80% (LD80): adult fleas fed approx. 2 hours on treated citrated bovine blood, knockdown and/or death observed at approx. 2 and 24 hours; for minimum effective concentration (MEC): assessed at 24 hours, 10-flea sample
Experimental: Flea (Ctenocephalides felis) Membrane Feed Assay-Adult
Formula (1) compounds were dissolved in DMSO and aliquots added to citrated bovine blood in a membrane covered Petri dish pre-warmed to 37° C. Feeding tubes containing approximately 30-35 adult fleas were placed onto the Petri dishes. The fleas fed for approximately 2 hours. […] Endpoint data is recorded as a lethal dose 80% (LD^80) in μg/mL. […] Further, the results can be assessed at 24 hours based on minimum effective concentration (MEC) in μM with a 10-flea sample.

Row | SMILES | lethal dose 80% (LD80) | minimum effective concentration (MEC)
1 | CC(C)C(=O)N1CC(F)(c2ccc(C3=NCC(c4cc(Cl)cc(Cl)c4)(C(F)(F)F)C3)cc2)C1 (centres unmarked) [Example 2, 1-(3-{4-[4-(3,5-dichloro-phenyl)-4-trifluoromethyl-4,5-dihydro-3H-pyrrol-2-yl]-phenyl}-3-fluoro-azetidin-1-yl)-2-methyl-propan-1-one] | 0.3 µg/mL | 1 µM
2 | CS(=O)(=O)CC(=O)N1CC(F)(c2ccc(C3=NCC(c4cc(Cl)c(Cl)c(Cl)c4)(C(F)(F)F)C3)cc2)C1 (centres unmarked) [Example 5, 1-(3-fluoro-3-{4-[4-(3,4,5-trichloro-phenyl)-4-trifluoromethyl-4,5-dihydro-3H-pyrrol-2-yl]-phenyl}-azetidin-1-yl)-2-methanesulfonyl-ethanone] | 1 µg/mL | 1 µM
3 | CS(=O)(=O)CC(=O)N1CC(F)(c2ccc(C3=NNC(c4cc(Cl)c(F)c(Cl)c4)(C(F)(F)F)C3)cc2)C1 (centres unmarked) [Example 18, 1-(3-(4-(5-(3,5-dichloro-4-fluorophenyl)-5-(trifluoromethyl)-4,5-dihydro-1H-pyrazol-3-yl)phenyl)-3-fluoroazetidin-1-yl)-2-(methylsulfonyl)ethanone] | – | 30 µM
4 | CC(C)C(=O)N1CC(F)(c2ccc(C3=NOC(c4cc(Cl)c(F)c(Cl)c4)(C(F)(F)F)O3)cc2)C1 (centres unmarked) [Example 8, 1-(3-{4-[5(3,5-dichloro-4-fluoro-phenyl)-5-trifluoromethyl-[1,4,2]dioxazol-3-yl]-phenyl}-3-fluoro-azetidin-1-yl)-2-methyl-propan-1-one] | – | 30 µM
5 | CC(C)C(=O)N1CC(F)(c2ccc(C3=NCC(c4cc(Cl)c(F)c(Cl)c4)(C(F)(F)F)C3)cc2)C1 (centres unmarked) [Example 4, 3-(3,5-dichloro-4-fluorophenyl)-5-[4-(3-fluoro-1-isobutyrylazetidin-3-yl)phenyl]-3-(trifluoromethyl)-3,4-dihydro-2H-pyrrole] | – | 1 µM
6 | CS(=O)(=O)CC(=O)N1CC(F)(c2ccc(C3=NCC(c4cc(Cl)cc(Cl)c4)(C(F)(F)F)C3)cc2)C1 (centres unmarked) [Example 1, 1-(3-{4-[4-(3,5-dichloro-phenyl)-4-trifluoromethyl-4,5-dihydro-3H-pyrrol-2-yl]-phenyl}-3-fluoro-azetidin-1-yl)-2-methanesulfonyl-ethanone] | – | 3 µM
7 | CS(=O)(=O)CC(=O)N1CC(F)(c2ccc(C3=NCC(c4cc(Cl)c(F)c(Cl)c4)(C(F)(F)F)C3)cc2)C1 (centres unmarked) [Example 3, 3-(3,5-dichloro-4-fluorophenyl)-5-(4-{3-fluoro-1-[(methylsulfonyl)-acetyl]azetidin-3-yl}phenyl)-3-(trifluoromethyl)-3,4-dihydro-2H-pyrrole] | 3 µg/mL | 1 µM
8 | CC(C)C(=O)N1CC(F)(c2ccc(C3=NCC(c4cc(Cl)c(Cl)c(Cl)c4)(C(F)(F)F)C3)cc2)C1 (centres unmarked) [Example 6, 5-[4-(3-fluoro-1-isobutyrylazetidin-3-yl)phenyl]-3-(3,4,5-trichloro-phenyl)-3-(trifluoromethyl)-3,4-dihydro-2H-pyrrole] | 3 µg/mL | –

Source: patent US9073912B2, “Azetidine derivatives as antiparasitic agents” (Zoetis LLC, priority 2012, dated 2015)
